In PubChem BioAssay (NCI) one finds GI50 and TGI data, which are given here for 42 compounds.

Where “and” joins values, the source holds several entries; their conditions need not be identical. Identical values can stand only once.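 Briefly, cells in 96-well plates were exposed to five compound concentrations for 48 h, and endpoints were estimated by linear interpolation. At the GI50, growth is halved. Definition used: TGI = concentration required for complete inhibition of growth.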

In the experiment the test system is MDA-MB-468 breast. As to the kind of experiment: NCI-60 cell line screen, 48 h.
As to `Cc1nc2ccc(Nc3nc(Cl)nc(N4CCOCC4)n3)cc2n1Cc1ccccc1`, the GI50 is 2210 nM and the TGI is 7090 nM.

Turning to `CC(=O)Nc1ccc2c(c1)C(c1ccccc1Cl)=Nc1c(n[nH]c1C)N2`, the GI50 is 1630 nM and the TGI was > 25000 nM.

`COc1cc(/C=C\c2cc(OC)c(OC)c(OC)c2)cc(N/C=C\C(=O)c2ccc(OC(F)(F)F)cc2)c1OC`: the GI50 was 3160 nM and the TGI is > 100000 nM.

On to `COc1ccc(C2CC(c3cccc(Nc4ccnc5cc(Cl)ccc45)c3)=NN2C=O)cc1` (stereo not drawn), for which the GI50 is 239 nM and the TGI worked out at 836 nM.

Regarding `Cc1cccc(N(C)C(=O)[C@@H]2[C@H](O)CCN2c2nc(C)cc(C(F)(F)F)c2C#N)c1`, the GI50 is 17300 nM and the TGI was found to be 51300 nM.

Take `CCOC(=O)c1cc(C(=O)c2cc(OC)c(OC)c(OC)c2)n2ncccc12`: the GI50 is 248 nM and the TGI stood at 32200 nM.

As for `COc1ccc(/C=C/C(=O)c2cc(OC)c(OC)c(OC)c2)cc1OCC(=O)Nc1nc2ccc(OC(F)(F)F)cc2s1`, the GI50 is 3520 nM and the TGI was 21200 nM.

On to `CN(c1ncccc1CNc1nc(Nc2ccc3c(c2)CC(=O)N3)ncc1C(F)(F)F)S(C)(=O)=O`, for which the GI50 is 1830 nM and 1620 nM; the TGI was 4040 nM and 4840 nM.

For `CC(N)C(Cc1ccc(Cl)cc1)c1ccc(Cl)cc1` (stereo not drawn), the GI50 is 2960 nM and the TGI is 11700 nM.

With `O=C(Cc1ccc(/C=C/C(=O)c2ncc[nH]2)cc1)Nc1ccc(F)cc1`, the GI50 was 974 nM and the TGI was 3140 nM.

As to `C#Cc1nc(/C=C/C(=O)c2nccn2C)cs1`, the GI50 is 470 nM and the TGI stood at 1470 nM.

Consider `O=c1c2c(=NCCN3CCCC3)cc3c(=O)n(CCCN4CCOCC4)c(=O)c4c(-c5ccc(CN6CCCC6)cc5)cc(c(O)n1CCCN1CCOCC1)c2c4-3`, for which the GI50 is 32.4 nM and the TGI came to 119 nM.

Consider `CC(=O)c1ccc2c(c1)c1cc(C(C)=O)ccc1n2CCNC(C)C`, for which the GI50 is 330 nM and the TGI amounted to 1740 nM.

As for `CS(=O)(=O)Nc1cncc(-c2ccc3ncnc(Nc4ccc(F)c(Cl)c4)c3c2)c1`, the GI50 is 181 nM and the TGI is 936 nM.

As for `Fc1cccc(COc2ccc(Nc3ncnc4sc(-c5cccs5)cc34)cc2Cl)c1`, the GI50 was 201 nM and the TGI stood at 2310 nM.

Regarding `C=C1CC[C@@H]2[C@](C)(COC(C)=O)[C@H](OC(C)=O)CC[C@@]2(C)[C@@H]1CC(Nc1ccc(S(=O)(=O)NC(C)=O)cc1)C1=CCOC1=O` (stereo partly drawn), the GI50 was 1530 nM and the TGI turned out to be 3130 nM.

Turning to `COc1cc(C2Cc3ncccc3-c3[nH]c(=O)c4cccnc4c32)cc(OC)c1OC` (stereo not drawn), the GI50 is 340 nM.

For the compound `CCCCCCNC(=O)Oc1ccc(/C(=C(/C)c2ccc(OC)cc2)c2ccc(OCCN3CCCCCC3)cc2)cc1`, the GI50 was 2040 nM and the TGI came to 4760 nM.

With `O=Nc1ccc(O)c(=O)cc1`, the GI50 was 739 nM and the TGI came to 2440 nM.

In the case of `CC(C)(C)c1ccc(S(=O)(=O)Oc2ccc3c4c(c(=O)oc3c2)CCCCC4)cc1`, the GI50 is 3410 nM and the TGI was > 100000 nM.

Regarding `OCCN1CCN(CCCN2c3ccccc3Sc3ccc(Cl)cc32)CC1`, the GI50 was 1270 nM and the TGI worked out at 2700 nM.

Regarding `C/C(=N\NC(=S)N1CCCCC1)c1ccccn1`, the GI50 was < 10 nM and the TGI was 135 nM.

With `Cc1cc(O)c(=O)cc2c1C[C@H]1CC(C)(C)/C=C/C[C@]3(C)Oc4cc(=O)c(O)cc(C)c4C[C@H]3C[C@H](O)[C@@]1(C)O2`, the GI50 was < 15.2 nM and 7.03 nM; the TGI was 243 nM and 106 nM.

Take `O=S(=O)(NCCCNc1nccc(-c2c(-c3ccc(O)cc3)nc3sccn23)n1)c1ccc(F)cc1`: the GI50 is 2000 nM and the TGI came out at 9430 nM.

On to `O=C(Nc1ccc2[nH]nc(-c3ccncc3)c2c1)[C@@H]1CCN(CC(=O)N2CCN(c3ccc(-c4ncccn4)cc3)CC2)C1`, for which the GI50 was > 100000 nM and the TGI was > 100000 nM.

Consider `CCN1C(=S)N(c2ccccc2)C2NC(=S)N(/N=C/C=C/c3ccccc3OC)C21` (stereo not drawn), for which the GI50 was 292 nM and the TGI was 1060 nM.

Consider `COC[C@@H](N=C1NC(=O)/C(=C/c2ccc3ncccc3c2)S1)c1ccccc1`, for which the GI50 was 4510 nM and the TGI came out at 17600 nM.

As for `CCN(Cc1ccc(C)cc1)c1ccc(CO)c(Cl)c1`, the GI50 was 16.9 nM and the TGI stood at 44.5 nM.

On to `COc1ccc(C2=N[C@@H](Cc3ccccc3)C(=O)Nc3ccsc32)cc1`, for which the GI50 is 1760 nM and the TGI was found to be 4580 nM.

`CCC(C)[C@H]1O[C@]2(CC[C@@H]1C)C[C@@H]1C[C@@H](C/C=C(\C)[C@@H](OC3C[C@H](OC)C(O[C@H]4C[C@H](OC)[C@@H](O)[C@H](C)O4)[C@H](C)O3)[C@@H](C)/C=C/C=C3\CO[C@@H]4[C@H](O)C(C)=C[C@@H](C(=O)O1)[C@]34O)O2` (stereo partly drawn): the GI50 is 1600 nM and the TGI is 3400 nM.

For `COc1cc(OC)c(S(N)(=O)=O)cc1C(=O)/C=C/c1ccccc1`, the GI50 was 1200 nM and the TGI stood at 9280 nM.

In the case of `Cc1nc([P+](c2ccccc2)(c2ccccc2)c2ccccc2)c(Sc2sc(-c3ccccc3)nc2[P+](c2ccccc2)(c2ccccc2)c2ccccc2)o1`, the GI50 was 417 nM and the TGI amounted to 3280 nM.

`Nc1nccc(-c2c(-c3ccc(F)cc3)ncn2C2CCNCC2)n1`: the GI50 was 649 nM and 2520 nM; the TGI is > 10800 nM and 11500 nM.

Turning to `NS(=O)(=O)c1ccc(Nc2cc(-c3cccc(O)c3)[nH]n2)cc1`, the GI50 was 9580 nM and the TGI was > 25000 nM.

For `CCN(CC)c1ccc(/C=N/NC(=O)CSc2nc3ccccc3c(=O)n2CCc2ccc(S(N)(=O)=O)cc2)c(O)c1`, the GI50 is 2120 nM and the TGI was > 100000 nM.

For the compound `O=C(CCCCCCNC(=O)C(O)(O)C(F)(F)F)Nc1ccc(Cl)cc1`, the GI50 was 1380 nM and the TGI amounted to 22200 nM.

With `CCOC(=O)c1ccc(NC(=O)Nc2nncs2)cc1`, the GI50 is 176 nM and the TGI amounted to 14800 nM.

For the compound `Fc1cc2[nH]ncc2c2c3c(c(-c4cn[nH]c4C(F)(F)F)nc12)CCCC3`, the GI50 is 1580 nM and the TGI is 4350 nM.

Consider `CCSCC1CC(O)(c2ccccc2)CC(c2ccc(F)cc2)O1` (stereo not drawn), for which the GI50 is 2040 nM and the TGI came out at 6050 nM.

With `Cc1cc2nc3c4cc(O)ccc4n(CCN(C)C)c3nc2cc1C`, the GI50 was 816 nM and the TGI came to 2780 nM.

Regarding `CC(=O)O[C@H]1C(=O)[C@@]2(C)C(C(OC(=O)c3ccccc3)[C@]3(O)C[C@H](OC(=O)C(OC(=O)CCCC(=O)NCCCN(C)C)C(NC(=O)c4ccccc4)c4ccccc4)C(C)=C1C3(C)C)C1(OC(C)=O)COC1C[C@@H]2O` (stereo partly drawn), the GI50 was < 10 nM and the TGI was found to be 10400 nM.

Regarding `N#Cc1c(-n2c(Br)c(Br)c3cc(Br)ccc32)[nH]c2c(Br)cc(Br)cc12`, the GI50 was 907 nM and the TGI came out at 3340 nM.
